Results: patent publication US8669251B2, “8-fluorophthalazin-1(2H)-one compounds” (Genentech, Inc., priority 2011, dated 2014)

System: production of CD69 by B lymphocytes in human whole blood
Test: CD69 Whole Blood Assay (CD69 Hu Blood FACS)
Format: cell-based
Conditions: human whole blood activated with goat F(ab')2 anti-human IgM, 20 hours; CD69 on CD20 positive cells by FACS; Table 1
Excerpt: A CD69 Whole Blood Assay can be conducted on Formula I compounds to determine the ability of compounds to inhibit the production of CD69 by B lymphocytes in human whole blood activated by crosslinking surface IgM with goat F(ab′)2 anti-human IgM (Example 907). CD69 is a type II C-type lectin involved in lymphocyte migration and cytokine secretion. CD69 expression represents one of the earliest available indicators of leukocyte activation and its rapid induction occurs through transcriptional activation (Vazquez et al (2009) Jour. of Immunology Published Oct. 19, 2009, doi:10.4049/jimmunol.0900839). Concentration-dependent inhibition of antigen receptor stimulation by selective Btk inhibitors induces cell surface expression of the lymphocyte activation marker CD69 (Honigberg et al (2010) Proc. Natl. Acad. Sci. 107(29):13075-13080). Thus, CD69 inhibition by selective Btk inhibitors may be correlated with therapeutic efficacy of certain B-cell disorders.
Human blood is obtained from healthy volunteers, with the following restrictions: 1 week drug-free, non-smokers. Blood (approximately 20 mls to test 8 compounds) is collected by venipuncture into Vacutainer® (Becton, Dickinson and Co.) tubes with sodium heparin.
Solutions of Formula I and II compounds at 10 mM in DMSO are diluted 1:10 in 100% DMSO, then are diluted by three-fold serial dilutions in 100% DMSO for a ten point dose-response curve. The compounds are further diluted 1:10 in PBS and then an aliquot of 5.5 μl of each compound is added in duplicate to a 2 ml 96-well plate; 5.5 μl of 10% DMSO in PBS is added as control and no-stimulus wells. Human whole blood —HWB (100 μl) is added to each well. After mixing the plates are incubated at 37° C., 5% CO2, 100% humidity for 30 minutes. Goat F(ab′)2 anti-human IgM (10 μl of a 500 μg/ml solution, 50 μg/ml final) is added to each well (except the no-stimulus wells) with mixing and the plates are incubated for an additional 20 hours. At the end of the 20 hour incubation, samples are incubated with fluorescent labeled antibodies for 30 minutes, at 37° C., 5% CO2, 100% humidity. Include induced control, unstained and single stains for compensation adjustments and initial voltage settings. Samples are then lysed with PharM Lyse™ (BD Biosciences Pharmingen) according to the manufacturer's instructions. Samples are then transferred to a 96 well plate suitable to be run on the BD Biosciences HTS 96 well system on the LSRII machine. Data acquired and Mean Fluorescence Intensity values were obtained using BD Biosciences DIVA Software. Results are initially analyzed by FACS analysis software (Flow Jo). […] The inhibitory concentration (IC50, IC70, IC90) values are calculated by Prism version 5, using a nonlinear regression curve fit.

In order of falling CD69 Hu Blood FACS (IC70):
1. C[C@H]1CN(C2COC2)CCN1c1ccc(Nc2cc(-c3cc(F)cc(-n4ncc5cc(C(C)(C)C)cc(F)c5c4=O)c3CO)cn(C)c2=O)nc1 [Compound 104, (S)-6-tert-butyl-8-fluoro-2-(5-fluoro-2-(hydroxymethyl)-3-(1-methyl-5-(5-(2-methyl-4-(oxetan-3-yl)piperazin-1-yl)pyridin-2-ylamino)-6-oxo-1,6-dihydropyridin-3-yl)phenyl)phthalazin-1(2H)-one]  32.9 nM
2. CN1CCN(c2ccc(Nc3cc(-c4cccc(-n5ncc6cc(C(C)(C)C)cc(F)c6c5=O)c4CO)cn(C)c3=O)nc2)CC1 [Compound 101, 6-tert-butyl-8-fluoro-2-(2-(hydroxymethyl)-3-(1-methyl-5-(5-(4-methylpiperazin-1-yl)pyridin-2-yl-amino)-6-oxo-1,6-dihydropyridin-3-yl)phenyl)phthalazin-1(2H)-one]  24 nM
3. Cn1cc(-c2cc(F)cc(-n3ncc4cc(C(C)(C)C)cc(F)c4c3=O)c2CO)cc(Nc2ccc(N3CCN(C4COC4)CC3)cn2)c1=O [Compound 102, 6-tert-butyl-8-fluoro-2-(5-fluoro-2-(hydroxymethyl)-3-(1-methyl-5-(5-(4-(oxetan-3-yl)piperazin-1-yl)pyridin-2-ylamino)-6-oxo-1,6-dihydropyridin-3-yl)phenyl)phthalazin-1(2H)-one]  12 nM
4. C[C@@H]1CN(c2ccc(Nc3cc(-c4ccnc(-n5ncc6cc(C(C)(C)C)cc(F)c6c5=O)c4CO)cn(C)c3=O)nc2)[C@@H](C)CN1C1COC1 [Compound 110, 6-tert-butyl-2-(4-(5-(5-((2S,5R)-2,5-dimethyl-4-(oxetan-3-yl)piperazin-1-yl)pyridin-2-ylamino)-1-methyl-6-oxo-1,6-dihydropyridin-3-yl)-3-(hydroxymethyl)pyridin-2-yl)-8-fluorophthalazin-1(2H)-one]  5.9 nM

Same assay, conditions: human whole blood activated with goat F(ab')2 anti-human IgM, 20 hours; CD69 on CD20 positive cells by FACS; Table 2

In order of rising CD69 Hu Blood FACS (IC70):
1. C[C@@H]1COCCN1C(=O)c1ccc(Nc2cc(-c3ccnc(-n4ncc5cc(C(C)(C)C)cc(F)c5c4=O)c3CO)cn(C)c2=O)nc1 [Compound 132, 6-tert-butyl-8-fluoro-2-[3-(hydroxymethyl)-4-[1-methyl-5-[[5-[(3R)-3-methylmorpholine-4-carbonyl]-2-pyridyl]amino]-6-oxo-3-pyridyl]-2-pyridyl]phthalazin-1-one]  14 nM
2. C[C@H]1CN(C2COC2)CCN1c1ccc(Nc2cc(-c3ccnc(-n4ncc5cc(C(C)(C)C)cc(F)c5c4=O)c3CO)nn(C)c2=O)nc1 [Compound 117, 6-tert-butyl-8-fluoro-2-[3-(hydroxymethyl)-4-[1-methyl-5-[[5-[(2S)-2-methyl-4-(oxetan-3-yl)piperazin-1-yl]-2-pyridyl]amino]-6-oxo-pyridazin-3-yl]-2-pyridyl]phthalazin-1-one]  16.5 nM
3. Cn1cc(-c2ccnc(-n3ncc4cc(C(C)(C)C)cc(F)c4c3=O)c2CO)cc(Nc2cc3n(n2)CCN(CC(F)F)C3)c1=O [Compound 135, 6-tert-butyl-2-[4-[5-[[5-(2,2-difluoroethyl)-6,7-dihydro-4H-pyrazolo[1,5-a]pyrazin-2-yl]amino]-1-methyl-6-oxo-3-pyridyl]-3-(hydroxymethyl)-2-pyridyl]-8-fluoro-phthalazin-1-one]  20 nM
4. CN1Cc2cc(Nc3cc(-c4ccnc(-n5ncc6cc(C(C)(C)C)cc(F)c6c5=O)c4CO)cn(C)c3=O)nn2CC1=O [Compound 146, 6-tert-butyl-8-fluoro-2-[3-(hydroxymethyl)-4-[1-methyl-5-[(5-methyl-6-oxo-4,7-dihydropyrazolo[1,5-a]pyrazin-2-yl)amino]-6-oxo-3-pyridyl]-2-pyridyl]phthalazin-1-one]  20.9 nM
5. Cn1cc(-c2ccnc(-n3ncc4cc(C(C)(C)C)cc(F)c4c3=O)c2CO)cc(Nc2cc3n(n2)CCN(CC(F)(F)F)C3)c1=O [Compound 134, 6-tert-butyl-8-fluoro-2-[3-(hydroxymethyl)-4-[1-methyl-6-oxo-5-[[5-(2,2,2-trifluoroethyl)-6,7-dihydro-4H-pyrazolo[1,5-a]pyrazin-2-yl]amino]-3-pyridyl]-2-pyridyl]phthalazin-1-one]  21.6 nM
6. Cn1cc(-c2ccnc(-n3ncc4cc(C(C)(C)C)cc(F)c4c3=O)c2CO)cc(Nc2ccc(C(C)(C)C#N)cn2)c1=O [Compound 156, 2-[6-[[5-[2-(6-tert-butyl-8-fluoro-1-oxo-phthalazin-2-yl)-3-(hydroxymethyl)-4-pyridyl]-1-methyl-2-oxo-3-pyridyl]amino]-3-pyridyl]-2-methyl-propanenitrile]  31 nM
7. Cn1cc(-c2ccnc(-n3ncc4cc(C(C)(C)C)cc(F)c4c3=O)c2CO)cc(Nc2ccc(N3CC(O)C3)cn2)c1=O [Compound 147, 6-tert-butyl-8-fluoro-2-[4-[5-[[5-(3-hydroxyazetidin-1-yl)-2-pyridyl]amino]-1-methyl-6-oxo-3-pyridyl]-3-(hydroxymethyl)-2-pyridyl]phthalazin-1-one]  33.3 nM
8. CC(=O)N1CCn2nc(Nc3cc(-c4ccnc(-n5ncc6cc(C(C)(C)C)cc(F)c6c5=O)c4CO)cn(C)c3=O)cc2C1 [Compound 124, 2-[4-[5-[(5-acetyl-6,7-dihydro-4H-pyrazolo[1,5-a]pyrazin-2-yl)amino]-1-methyl-6-oxo-3-pyridyl]-3-(hydroxymethyl)-2-pyridyl]-6-tert-butyl-8-fluoro-phthalazin-1-one]  41.5 nM
9. CN1CCn2nc(Nc3cc(-c4ccnc(-n5ncc6cc(C(C)(C)C)cc(F)c6c5=O)c4CO)nn(C)c3=O)cc2C1 [Compound 153, 6-tert-butyl-8-fluoro-2-[3-(hydroxymethyl)-4-[1-methyl-5-[(5-methyl-6,7-dihydro-4H-pyrazolo[1,5-a]pyrazin-2-yl)amino]-6-oxo-pyridazin-3-yl]-2-pyridyl]phthalazin-1-one]  59.6 nM
10. Cc1cc(Nc2cc(-c3ccnc(-n4ncc5cc(C(C)(C)C)cc(F)c5c4=O)c3CO)cn(C)c2=O)n[nH]1 [Compound 121, 6-tert-butyl-8-fluoro-2-[3-(hydroxymethyl)-4-[1-methyl-5-[(5-methyl-1H-pyrazol-3-yl)amino]-6-oxo-3-pyridyl]-2-pyridyl]phthalazin-1-one]  79.3 nM
11. Cn1cc(-c2ccnc(-n3ncc4cc(C(C)(C)C)cc(F)c4c3=O)c2CO)cc(Nc2ccncn2)c1=O [Compound 113, 6-tert-butyl-8-fluoro-2-[3-(hydroxymethyl)-4-[1-methyl-6-oxo-5-(pyrimidin-4-ylamino)-3-pyridyl]-2-pyridyl]phthalazin-1-one]  82.3 nM
12. Cn1cc(Nc2cc(-c3ccnc(-n4ncc5cc(C(C)(C)C)cc(F)c5c4=O)c3CO)cn(C)c2=O)nn1 [Compound 149, 6-tert-butyl-8-fluoro-2-[3-(hydroxymethyl)-4-[1-methyl-5-[(1-methyltriazol-4-yl)amino]-6-oxo-3-pyridyl]-2-pyridyl]phthalazin-1-one]  93 nM
13. Cc1cc(Nc2cc(-c3ccnc(-n4ncc5cc(C(C)(C)C)cc(F)c5c4=O)c3CO)nn(C)c2=O)nn1C [Compound 127, 6-tert-butyl-2-[4-[5-[(1,5-dimethylpyrazol-3-yl)amino]-1-methyl-6-oxo-pyridazin-3-yl]-3-(hydroxymethyl)-2-pyridyl]-8-fluoro-phthalazin-1-one]  115 nM
14. Cc1cc(Nc2cc(-c3ccnc(-n4ncc5cc(C(C)(C)C)cc(F)c5c4=O)c3CO)cn(C)c2=O)nn1CC(F)F [Compound 145, 6-tert-butyl-2-[4-[5-[[1-(2,2-difluoroethyl)-5-methyl-pyrazol-3-yl]amino]-1-methyl-6-oxo-3-pyridyl]-3-(hydroxymethyl)-2-pyridyl]-8-fluoro-phthalazin-1-one]  163 nM
